Measured values as given in patent publication US9493511B2, “Cyclosporin analogs” (Allergan, Inc., priority 2010, dated 2016).
Where a name gives a salt, the structure may show the parent alone. Read-outs that look alike come from different tables or passages of the source. Square brackets hold non-standard residues; d marks the D form. Peptide text beside a SMILES is read from it. * marks the point of attachment. NMe(2-epi-Bmt) = C/C=C/C[C@@H](C)[C@@H](O)[C@@H](NC)C(=O)O; Ethyl(2-morpholino) = C1CN(CC*)CCO1; Ethyl(2-guanidino) = N=C(N)NCC*; Ala(3-yl) = N[C@@H](C*)C(=O)O; NMeL = CN[C@@H](CC(C)C)C(=O)O; dNMeL = CN[C@H](CC(C)C)C(=O)O; dNMeV = CN[C@@H](C(=O)O)C(C)C; dNMeC = CN[C@H](CS)C(=O)O; dAbu = CC[C@@H](N)C(=O)O; Et2NCH2CH2 = CCN(CC)CC*; CH2CH2COOH = O=C(O)CC*; X3 = c1cc(CC*)ccn1; X5 = CN1CCC(*)CC1; X6 = COC(=O)CC*; X1 = COC(=O)C*; X4 = CC(C)NCC*; X2 = CCCCC*

Experiments:
Calcineurin = Calcineurin (Homo sapiens, UniProt P63098+Q08209); experiment: biochemical
[1] = tested on: Spleen cells from C57BL/6 (responder) and BALB/c (stimulator) mice; experiment: Mixed lymphocyte reaction (MLR) assay; type: cell-based, mouse
human recombinant Cyp A = human recombinant Cyp A (Homo sapiens, UniProt P62937); experiment: biochemical
Chain of human recombinant Cyp A (P62937 whole entry): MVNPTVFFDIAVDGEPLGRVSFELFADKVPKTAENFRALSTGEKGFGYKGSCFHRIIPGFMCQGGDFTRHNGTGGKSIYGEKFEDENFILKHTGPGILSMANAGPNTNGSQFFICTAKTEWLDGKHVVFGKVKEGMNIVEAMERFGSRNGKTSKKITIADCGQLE

| SMILES | IC50 (Calcineurin) | IC50 ([1]; Mus musculus, read-out: MLR nM) | Ki (human recombinant Cyp A) | IC50 ([1]; mouse spleen cells, five days, 3H-thymidine proliferation, read-out: MLR) |
| --- | --- | --- | --- | --- |
| C/C=C/C[C@@H](C)[C@@H](O)[C@@H]1C(=O)N[C@H](CC)C(=O)N(C)[C@H](CSCC(=O)OC)C(=O)N(C)[C@@H](CC(C)C)C(=O)N[C@H](C(C)C)C(=O)N(C)[C@H](CC(C)C)C(=O)N[C@H](C)C(=O)N[C@@H](C)C(=O)N(C)[C@H](CC(C)C)C(=O)N(C)[C@H](CC(C)C)C(=O)N(C)[C@H](C(C)C)C(=O)N1C [Example 11, [(S)-Carbomethoxymethylthiomethyl-Sar]^3 cyclosporin A] (cyclo(A[dNMeL][dNMeL][dNMeV][NMe(2-epi-Bmt)][dAbu][dNMeC](X1)[NMeL][dV][dNMeL][dA])) | 3900 nM | 19500 nM | 2.1 nM |  |
| C/C=C/C[C@@H](C)[C@@H](O)[C@@H]1C(=O)N[C@H](CC)C(=O)N(C)[C@H](CSC[C@H](N)C(=O)O)C(=O)N(C)[C@@H](CC(C)C)C(=O)N[C@H](C(C)C)C(=O)N(C)[C@H](CC(C)C)C(=O)N[C@H](C)C(=O)N[C@@H](C)C(=O)N(C)[C@H](CC(C)C)C(=O)N(C)[C@H](CC(C)C)C(=O)N(C)[C@H](C(C)C)C(=O)N1C [Example 14, [(S)-{(R)-2-Amino-2-carbohydroxy-ethyl}thiomethyl-Sar]^3 cyclosporin A] (cyclo(A[dNMeL][dNMeL][dNMeV][NMe(2-epi-Bmt)][dAbu][dNMeC](Ala(3-yl))[NMeL][dV][dNMeL][dA])) | 7400 nM |  |  |  |
| C/C=C/C[C@@H](C)[C@@H](O)[C@@H]1C(=O)N[C@H](CC)C(=O)N(C)[C@H](CSCCNC(C)C)C(=O)N(C)[C@@H](CC(C)C)C(=O)N[C@H](C(C)C)C(=O)N(C)[C@H](CC(C)C)C(=O)N[C@H](C)C(=O)N[C@@H](C)C(=O)N(C)[C@H](CC(C)C)C(=O)N(C)[C@H](CC(C)C)C(=O)N(C)[C@H](C(C)C)C(=O)N1C [Example 18, [(S)-2-Isopropylaminoethylthiomethyl-Sar]^3 cyclosporin A] (cyclo(A[dNMeL][dNMeL][dNMeV][NMe(2-epi-Bmt)][dAbu][dNMeC](X4)[NMeL][dV][dNMeL][dA])) | 4600 nM |  | 5.2 nM | 3300 nM |
| C/C=C/C[C@@H](C)[C@@H](O)[C@@H]1C(=O)N[C@H](CC)C(=O)N(C)[C@H](CSCCNC(=N)N)C(=O)N(C)[C@@H](CC(C)C)C(=O)N[C@H](C(C)C)C(=O)N(C)[C@H](CC(C)C)C(=O)N[C@H](C)C(=O)N[C@@H](C)C(=O)N(C)[C@H](CC(C)C)C(=O)N(C)[C@H](CC(C)C)C(=O)N(C)[C@H](C(C)C)C(=O)N1C [Example 19, [(S)-2-Guanidinoethyl-1-sulfanylmethyl-Sar]^3 cyclosporin A hydrochloride] (cyclo(A[dNMeL][dNMeL][dNMeV][NMe(2-epi-Bmt)][dAbu][dNMeC](Ethyl(2-guanidino))[NMeL][dV][dNMeL][dA])) | 3200 nM |  | 6.8 nM |  |
| C/C=C/C[C@@H](C)[C@@H](O)[C@@H]1C(=O)N[C@H](CC)C(=O)N(C)[C@H](CSCCC(=O)O)C(=O)N(C)[C@@H](CC(C)C)C(=O)N[C@H](C(C)C)C(=O)N(C)[C@H](CC(C)C)C(=O)N[C@H](C)C(=O)N[C@@H](C)C(=O)N(C)[C@H](CC(C)C)C(=O)N(C)[C@H](CC(C)C)C(=O)N(C)[C@H](C(C)C)C(=O)N1C [Example 17, [(S)-Carbohydroxyethylthiomethyl-Sar]^3 cyclosporin A] (cyclo(A[dNMeL][dNMeL][dNMeV][NMe(2-epi-Bmt)][dAbu][dNMeC](CH2CH2COOH)[NMeL][dV][dNMeL][dA])) | 17000 nM |  | 2.8 nM |  |
| C/C=C/C[C@@H](C)[C@@H](O)[C@@H]1C(=O)N[C@H](CC)C(=O)N(C)[C@H](CSC(C)(C)[C@@H](N)C(=O)OC)C(=O)N(C)[C@@H](CC(C)C)C(=O)N[C@H](C(C)C)C(=O)N(C)[C@H](CC(C)C)C(=O)N[C@H](C)C(=O)N[C@@H](C)C(=O)N(C)[C@H](CC(C)C)C(=O)N(C)[C@H](CC(C)C)C(=O)N(C)[C@H](C(C)C)C(=O)N1C [Example 13, [(S)-{(S)-2-Amino-2-carbomethoxy-1,1-dimethyl-ethyl}thiomethyl-Sar]^3 cyclosporin A] | 4100 nM |  | 9.3 nM |  |
| C/C=C/C[C@@H](C)[C@@H](O)[C@@H]1C(=O)N[C@H](CC)C(=O)N(C)[C@H](CSC(C)(C)[C@@H](N)C(=O)O)C(=O)N(C)[C@@H](CC(C)C)C(=O)N[C@H](C(C)C)C(=O)N(C)[C@H](CC(C)C)C(=O)N[C@H](C)C(=O)N[C@@H](C)C(=O)N(C)[C@H](CC(C)C)C(=O)N(C)[C@H](CC(C)C)C(=O)N(C)[C@H](C(C)C)C(=O)N1C [Example 16, [(S)-{(S)-2-Amino-2-carbohydroxy-1,1-dimethyl-ethyl}thiomethyl-Sar]^3 cyclosporin A] | 2700 nM |  | 5.8 nM |  |
| C/C=C/C[C@@H](C)[C@@H](O)[C@@H]1C(=O)N[C@H](CC)C(=O)N(C)[C@H](CSCCN(CC)CC)C(=O)N(C)[C@@H](CC(C)C)C(=O)N[C@H](C(C)C)C(=O)N(C)[C@H](CC(C)C)C(=O)N[C@H](C)C(=O)N[C@@H](C)C(=O)N(C)[C@H](CC(C)C)C(=O)N(C)[C@H](CC(C)C)C(=O)N(C)[C@H](C(C)C)C(=O)N1C [Example 2, [(S)-2-Diethylaminoethylthiomethyl-Sar]^3 cyclosporin A] (cyclo(A[dNMeL][dNMeL][dNMeV][NMe(2-epi-Bmt)][dAbu][dNMeC](Et2NCH2CH2)[NMeL][dV][dNMeL][dA])) | 3600 nM | 3500 nM | 2.4 nM |  |
| C/C=C/C[C@@H](C)[C@@H](O)[C@@H]1C(=O)N[C@H](CC)C(=O)N(C)[C@H](CSC2CCN(C)CC2)C(=O)N(C)[C@@H](CC(C)C)C(=O)N[C@H](C(C)C)C(=O)N(C)[C@H](CC(C)C)C(=O)N[C@H](C)C(=O)N[C@@H](C)C(=O)N(C)[C@H](CC(C)C)C(=O)N(C)[C@H](CC(C)C)C(=O)N(C)[C@H](C(C)C)C(=O)N1C [Example 9] (cyclo(A[dNMeL][dNMeL][dNMeV][NMe(2-epi-Bmt)][dAbu][dNMeC](X5)[NMeL][dV][dNMeL][dA])) | 3300 nM | 3800 nM | 4.8 nM |  |
| C/C=C/C[C@@H](C)[C@@H](O)[C@@H]1C(=O)N[C@H](CC)C(=O)N(C)[C@H](CSCCCCC)C(=O)N(C)[C@@H](CC(C)C)C(=O)N[C@H](C(C)C)C(=O)N(C)[C@H](CC(C)C)C(=O)N[C@H](C)C(=O)N[C@@H](C)C(=O)N(C)[C@H](CC(C)C)C(=O)N(C)[C@H](CC(C)C)C(=O)N(C)[C@H](C(C)C)C(=O)N1C [Example 5, [(S)-Pentylthiomethyl-Sar]^3 cyclosporin A] (cyclo(A[dNMeL][dNMeL][dNMeV][NMe(2-epi-Bmt)][dAbu][dNMeC](X2)[NMeL][dV][dNMeL][dA])) | > 10000 nM | 2700 nM | 2.3 nM |  |
| C/C=C/C[C@@H](C)[C@@H](O)[C@@H]1C(=O)N[C@H](CC)C(=O)N(C)[C@H](CSCCC(=O)OC)C(=O)N(C)[C@@H](CC(C)C)C(=O)N[C@H](C(C)C)C(=O)N(C)[C@H](CC(C)C)C(=O)N[C@H](C)C(=O)N[C@@H](C)C(=O)N(C)[C@H](CC(C)C)C(=O)N(C)[C@H](CC(C)C)C(=O)N(C)[C@H](C(C)C)C(=O)N1C [Example 12, [(S)-Carbomethoxyethylthiomethyl-Sar]^3 cyclosporin A] (cyclo(A[dNMeL][dNMeL][dNMeV][NMe(2-epi-Bmt)][dAbu][dNMeC](X6)[NMeL][dV][dNMeL][dA])) | 9100 nM |  | 2.7 nM |  |
| C/C=C/C[C@@H](C)[C@@H](O)[C@@H]1C(=O)N[C@H](CC)C(=O)N(C)[C@H](CSCCN2CCOCC2)C(=O)N(C)[C@@H](CC(C)C)C(=O)N[C@H](C(C)C)C(=O)N(C)[C@H](CC(C)C)C(=O)N[C@H](C)C(=O)N[C@@H](C)C(=O)N(C)[C@H](CC(C)C)C(=O)N(C)[C@H](CC(C)C)C(=O)N(C)[C@H](C(C)C)C(=O)N1C [Example 10, [(S)-2-(Morpholino)ethylthiomethyl-Sar]^3 cyclosporin A] (cyclo(A[dNMeL][dNMeL][dNMeV][NMe(2-epi-Bmt)][dAbu][dNMeC](Ethyl(2-morpholino))[NMeL][dV][dNMeL][dA])) | 4200 nM |  | 3.9 nM |  |
| C/C=C/C[C@@H](C)[C@@H](O)[C@@H]1C(=O)N[C@H](CC)C(=O)N(C)[C@H](CSC)C(=O)N(C)[C@@H](CC(C)C)C(=O)N[C@H](C(C)C)C(=O)N(C)[C@H](CC(C)C)C(=O)N[C@H](C)C(=O)N[C@@H](C)C(=O)N(C)[C@H](CC(C)C)C(=O)N(C)[C@H](CC(C)C)C(=O)N(C)[C@H](C(C)C)C(=O)N1C [Example 4, [(S)-Methylthiomethyl-Sar]^3 cyclosporin A] (cyclo(A[dNMeL][dNMeL][dNMeV][NMe(2-epi-Bmt)][dAbu][dNMeC](Me)[NMeL][dV][dNMeL][dA])) | 2200 nM |  | 6.9 nM |  |
| C/C=C/C[C@@H](C)[C@@H](O)[C@@H]1C(=O)N[C@H](CC)C(=O)N(C)[C@H](CSCCc2ccncc2)C(=O)N(C)[C@@H](CC(C)C)C(=O)N[C@H](C(C)C)C(=O)N(C)[C@H](CC(C)C)C(=O)N[C@H](C)C(=O)N[C@@H](C)C(=O)N(C)[C@H](CC(C)C)C(=O)N(C)[C@H](CC(C)C)C(=O)N(C)[C@H](C(C)C)C(=O)N1C [Example 3, [(S)-2-(4-pyridyl)ethylthiomethyl-Sar]^3 cyclosporin A] (cyclo(A[dNMeL][dNMeL][dNMeV][NMe(2-epi-Bmt)][dAbu][dNMeC](X3)[NMeL][dV][dNMeL][dA])) | 11800 nM | 2000 nM | 4.3 nM |  |
